This note sets out measurements from patent US12503704B2, “Modified cell” (Oxford University Innovation Limited, priority 2019, dated 2025).

Data set [1] relates to ICeuI+ Glycolysis+ strain. Nature of the data set: D-cycloserine treatment, plate counts over time. The class given is cell-based, Escherichia coli. The settings on record: 200 μg/mL D-cycloserine at time 0 and 1.5 hours.
Data set [2] concerns parent cells. Nature of the data set: Screen of D-cycloserine concentrations to maintain SimCell purity. The settings on record: little to no increase in OD. The class given is cell-based, Escherichia coli. The procedure:
A protocol for minimal cell purification from Heinemann and Ankenbauer was adapted for SimCell purification (12)^a. Mixed cultures of SimCells and parent cells were treated with D-cycloserine to kill actively dividing cells. D-cycloserine was added at a concentration of 200 μg/mL and cells were left to incubate at 37° C. and shake for 1.5 hours before D-cycloserine was added again at the same concentration. After 24 hours of treatment with D-cycloserine, cells were spun down and washed twice with phosphate buffered saline (PBS). When pure SimCell cultures were induced for protein expression, 25 μg/mL D-cycloserine was added every two days to prevent parent cell growth but allow SimCells to be functional.
Further optimization of D-cycloserine concentration ensured pure SimCell populations in the following experiments, and excluded the contribution made by remaining parent cells in SimCell populations. After a screen of D-cycloserine concentrations, 25 μg/mL was determined to be the point where parent cells were killed in the culture evidenced by little to no increase in OD (Table S3) but also permitted protein production or other activities in SimCells. By using D-cycloserine which targets active, parent cells, we were able to distinguish activity from SimCells on a larger, culture-level scale for further characterization.

Data set [3] relates to ICeuI− Glycolysis− strain. Nature of the data set: D-cycloserine treatment, plate counts over time. Type of data set: cell-based, Escherichia coli. The settings on record: 200 μg/mL D-cycloserine at time 0 and 1.5 hours.
The subject of data set [4] is ICeuI− Glycolysis+ strain. As to the kind of experiment: D-cycloserine treatment, plate counts over time. The settings on record: 200 μg/mL D-cycloserine at time 0 and 1.5 hours. Type of data set: cell-based, Escherichia coli.
The test system of data set [5] is ICeuI+ Glycolysis− strain. As to the kind of experiment: D-cycloserine treatment, plate counts over time. The class given is cell-based, Escherichia coli. The settings on record: 200 μg/mL D-cycloserine at time 0 and 1.5 hours.
For data set [6], the system named is fibroblasts; A549, Mo59K, and RD cancer cells.
For data set [7] the test system is unchanged. Nature of the data set: Cell viability assay with supplements, all mammalian cell lines. Particulars: PBS control.
Data set [8] concerns SalAR circuit. As to the kind of experiment: GFP output after induction of the SalAR circuit (pSalAR-GFP) in parent cells. Type of data set: cell-based, Escherichia coli. The source says:
FIGS. 33A-33E: The levels of GFP over time after induction of the SalAR circuit can act as an indicator for the kinetics of catechol production. Production of GFP by parent cells with the pSalAR-GFP plasmid and FIG. 33A without an additional glycolysis pathway (pSEVA224) or FIG. 33B with an additional glycolysis pathway (pSEVA224-GB3). […] FIG. 33C Ratio of fluorescent output of induced cells versus cells not induced with SA. In parent cells GFP production increased by about 1.5 and 2-fold when induced with 100 μM and 500 μM SA, respectively. FIG. 33D Catechol production by E. coli. LB agar plates with aspirin and salicylic acid have no color (top), while catechol is distinctly brown (bottom). When E. coli with pSalAR-GFP was plated on agar with inducers 2 mM Aspirin (bottom middle) or 2 mM salicylic acid (bottom right) catechol was produced and diffused out of the cell, tinting the agar brown. […] FIG. 33E The color of the supernatant darkens as inducer concentration increases, indicating production and export of catechol. SA: salicylic acid, ASA: acetylsalicylic acid (aspirin).

The test system of data set [9] is A549 lung cancer cell line. As to the kind of experiment: Cell viability assay (crystal violet). The settings on record: catechol at concentrations as low as 100 μM, 24 hours. The class given is cell-based.
Data set [10] relates to glioblastoma (Mo59K) cancer cell line. As to the kind of experiment: Cell viability assay (crystal violet). The settings on record: catechol at concentrations as low as 100 μM, 24 hours. Type of data set: cell-based.
Data set [11] concerns fibroblast control cell line (Fibroblasts). As to the kind of experiment: Cell viability assay (crystal violet). Type of data set: cell-based. Particulars: catechol at concentrations as low as 100 μM, 24 hours.
The test system of data set [12] is rhabdomyosarcoma (RD) cancer cell line. Nature of the data set: Cell viability assay (crystal violet). The class given is cell-based. The settings on record: catechol at concentrations as low as 100 μM, 24 hours.

Where two headings read alike, the source gives them in different places.

As to `N[C@@H]1CONC1=O` [D-cycloserine], the CFU/mL in data set [1] (time 0 hr) is recorded as 3.08 × 10^5 CFU/mL; in data set [1] (time 1.5 hr), 2.7 × 10^3 CFU/mL; in data set [1] (time 5 hr), 7.5 × 10^2 CFU/mL; in data set [1] (time 24 hr), 0 CFU/mL; in [3] (time 0 hr), 1.8 × 10^9 CFU/mL; in [3] (time 1.5 hr), 1.1 × 10^9 CFU/mL. The CFU/mL is recorded as 1.3 × 10^7 CFU/mL in [3] (time 5 hr); 1.6 × 10^7 CFU/mL in data set [3] (time 24 hr); 1.0 × 10^9 CFU/mL in data set [4] (time 0 hr); 6.9 × 10^8 CFU/mL in data set [4] (time 1.5 hr); 4 × 10^7 CFU/mL in data set [4] (time 5 hr); 8.3 × 10^4 CFU/mL in data set [4] (time 24 hr). The CFU/mL was 3.5 × 10^5 CFU/mL in [5] (time 0 hr), 4.1 × 10^3 CFU/mL in data set [5] (time 1.5 hr), 7.2 × 10^2 CFU/mL in data set [5] (time 5 hr) and 0 CFU/mL in data set [5] (time 24 hr). For the same compound, the “D-cycloserine concentration at which parent cells were killed while SimCell activity was permitted” value in [2] came out at 25 µg/mL.

As to `CC(=O)Oc1ccccc1C(=O)O` [aspirin, acetylsalicylic acid], the “effect of supplement alone on viability of mammalian cell lines” value in data set [6] is recorded as “no adverse effects”.

On to `O=C(O)c1ccccc1O` [SA, salicylic acid], for which the “effect of supplement alone on viability of mammalian cell lines” value in data set [7] is listed as “did not cause cell death”; in data set [6] it was “no adverse effects”. For the same compound, the “increase in GFP production, induced versus not induced” value in data set [8] (100 μM SA) is listed as “about 1.5 fold”; in [8] (500 μM SA), about 2 fold.

As to `Oc1ccccc1O` [catechol, 1,2-dihydroxybenzene], the cell viability entry is recorded as “significantly decreased the viability” in data set [9], “significantly decreased the viability” in data set [10], “less of an adverse effect” in [11] and “significantly decreased the viability” in data set [12].
